In article PMC5809559, “DYRK1A inhibition and cognitive rescue in a Down syndrome mouse model are induced by new fluoro-DANDY derivatives” (Scientific Reports, 2018):

Experiments:
[1] = Bioavailability in plasma after i.p. injection (UHPLC-MS/MS); type: in vivo; conditions: mouse, ip, WT mice, 20 mg/kg i.p.
Experimental: Before undertaking behavioral studies in Ts65Dn mice, the bioavailability of F-DANDY 5a in plasma after peripheral (intraperitoneal – i.p.) injection in mice was determined. […] The sample preparation and analytical protocol were adapted from Bonneau et al.[38],[39]. […] A 30 min interval was thus selected between time of injection and behavioral assessment.
All plasma and brain homogenate extracts were analyzed by an ultra-high performance liquid chromatography (UHPLC) system coupled to a triple-quadrupole mass spectrometer (Dionex Ultimate 3000 RSLC system coupled to a TSQ Vantage EMR, Thermo Scientific, Les Ulis, France). UHPLC separation was performed using a C18 column (HSS T3, 2.1 mm × 150 mm, 1.7 μm, Waters, Guyancourt, France) equipped with a guard column (HSS T3, 2.1 mm × 5 mm, 1.7 μm, Waters, Guyancourt, France) and maintained at 40 °C. The mobile phases were water, 0.1% formic acid (A) and acetonitrile (B). […] A washing step in acetonitrile/isopropanol was added to limit carryover problems. Injection volume was 4 µL and the autosampler was maintained at 6 °C. Ionization was performed with a heated electrospray ionization source in positive mode. The source parameters were set as follows: spray voltage 3350 V, vaporizer temperature 250 °C, sheath gas (N2) pressure 55 psi, auxiliary gas pressure (N2) 25 psi, capillary temperature 350 °C. Analysis was performed under the Selected Reaction Monitoring (SRM) mode using several transitions for each compound at optimized collision energies (see Table SI2 and Figure SI1). […] Data acquisition was performed using ThermoScientific Xcalibur 2.1 software system. All samples were analyzed in triplicate.
Two compounds, V[34] […] Limit of quantification (LOQ) was determined as the lowest point of the calibration curve at 1.6 pg/μL. […] Limit of quantification (LOQ) was determined as the lowest point of the calibration curve at 1.6 pg/mg. […]
Using an optimized Ultra Performance Liquid Chromatography with tandem mass spectrometry (UPLC-MS/MS), compound 5a was subsequently quantified in plasma. […] All samples were analyzed in triplicate.

KB cells = assay: KB cell proliferation / cytotoxicity (CellTiter-Blue); type: cell-based; conditions: Homo sapiens, KB, 72 h, 72 h
Experimental: Cancer cell lines were obtained from the American Type Culture Collection (Rockville, MD, USA) and were cultured according to the supplier’s instructions. Briefly, human KB epidermal carcinoma cells were grown in Dulbecco minimal essential medium (DMEM) containing 4.5 g/L glucose supplemented with 10% fetal calf serum (FCS) and 1% glutamine, 100 UI penicillin, 100 µg/mL streptomycin and 1.5 µg/mL fungizone and maintained at 37 °C in a humidified atmosphere containing 5% CO2. Cell viability was assessed using Promega CellTiter-Blue TM reagent according to the manufacturer’s instructions. Cells were seeded in 96-well plates (5 × 10^3 cells/well) containing […]. After 24 h of culture, the cells were supplemented with […] of the studied compound dissolved in DMSO (less than 0.1% in each preparation). After 72 h of incubation, […] of resazurin was added for 2 h before recording fluorescence (λex = 560 nm, λem = 590 nm) using a Victor microtiter plate fluorimeter (Perkin-Elmer, USA).

## Oc1ccc(-c2cnc3[nH]cc(-c4ccc(F)cc4)c3c2)cc1O [Compound 5a, 3-(4-fluorophenyl)-5-(3,4-dihydroxyphenyl)-1H-pyrrolo[2,3-b]pyridine]
[1]; after slow decrease over 2.5 hours, read-out: plasma level
  concentration at 2.5 h: ~50 ng/mL
[1]; t = 4.4 min
  concentration at 4.4 min: 312 ng/mL
[1]; t = 5.4 min
  concentration at 5.4 min: 236 ng/mL
KB cells; 10^−5 M, read-out: % Growth inhibition 10^−5 M
  inhibition at 10 µM: < 50%
KB cells; 10^−6 M, read-out: % Growth inhibition 10^−6 M
  inhibition at 1 µM: 0%
